{
  "source": "patent US20020055094A1",
  "about": "(priority 1996, published 2002)",
  "key": {"[1]": {"system": "influenza A NWS/Tokyo (H1N2)", "format": "binding"}, "[2]": {"molecular_target": "whole virus influenza neuraminidase, influenza B strain B/Vic/02/87 (Influenza B virus, UniProt P27907)", "sequence (P27907 whole entry, looked up)": "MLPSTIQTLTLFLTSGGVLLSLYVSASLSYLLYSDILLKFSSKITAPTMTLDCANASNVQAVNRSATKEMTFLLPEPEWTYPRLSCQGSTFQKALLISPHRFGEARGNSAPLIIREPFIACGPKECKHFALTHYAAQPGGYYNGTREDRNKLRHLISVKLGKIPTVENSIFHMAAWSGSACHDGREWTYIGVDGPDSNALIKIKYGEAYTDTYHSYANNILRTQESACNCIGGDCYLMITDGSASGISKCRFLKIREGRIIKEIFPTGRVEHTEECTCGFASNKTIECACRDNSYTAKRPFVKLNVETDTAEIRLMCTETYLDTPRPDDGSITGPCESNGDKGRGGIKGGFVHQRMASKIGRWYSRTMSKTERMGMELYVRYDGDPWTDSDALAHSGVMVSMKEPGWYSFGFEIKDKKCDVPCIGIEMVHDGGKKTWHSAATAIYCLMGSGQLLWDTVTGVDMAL", "format": "biochemical", "details": "read-out: Binding Constants (M) / inhibition constants (IC50), B/Vic/02/87"}, "[3]": {"molecular_target": "whole virus influenza neuraminidase, influenza A strain NWS/Tokyo (Influenza A virus, UniProt P06820)", "sequence (P06820 whole entry, looked up)": "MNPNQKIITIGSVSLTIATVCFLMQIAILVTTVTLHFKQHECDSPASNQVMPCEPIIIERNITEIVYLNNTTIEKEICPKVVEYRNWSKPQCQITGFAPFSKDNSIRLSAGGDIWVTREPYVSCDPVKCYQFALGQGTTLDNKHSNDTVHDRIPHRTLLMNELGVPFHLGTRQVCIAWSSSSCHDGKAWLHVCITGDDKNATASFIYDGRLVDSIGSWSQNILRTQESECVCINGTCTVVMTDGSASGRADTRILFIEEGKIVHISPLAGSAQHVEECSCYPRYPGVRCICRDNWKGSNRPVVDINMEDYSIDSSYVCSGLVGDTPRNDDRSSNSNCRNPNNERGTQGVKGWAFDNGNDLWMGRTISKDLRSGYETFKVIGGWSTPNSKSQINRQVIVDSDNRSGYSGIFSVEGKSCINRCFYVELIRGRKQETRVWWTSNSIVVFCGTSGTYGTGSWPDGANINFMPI", "assay": "biochemical"}},
  "note": "Read-outs that look alike come from different tables or passages of the source.",
  "data": [
    {"compound": "5-acetamido-7-{6′-[6″-(6″′-biotinylaminocaproyl) -tri-amingcaroyl]-aminohexyl}-carbamoyloxy-4-guanidino -2,3,4,5-tetradeoxy-D-glycero-D-gaacto-non-2-enopyranosonic acid [Compound No. 26]", "values": [
      {"measurement": "compound concentration giving the best results", "setting": "[1]", "result": 0.1, "unit": "µM"},
      {"measurement": "virus amount readily detected", "setting": "[1]", "result": "2.5×10^5 pfu/well"},
      {"measurement": "IC50", "setting": "[2]", "result": "4e-08", "unit": "M"}
    ]},
    {"compound": "CC(=O)N[C@H]1[C@H]([C@H](OC(=O)NCCCCCCNC(=O)NCCCCCCN)[C@H](O)CO)OC(C(=O)O)=C[C@@H]1NC(=N)N", "note": "[Compound No. 8, 5-acetamido-7-[6′-(6″-aminohexylureido)-hexyl]-carbamoyloxy-4-guanidino-2,3,4,5-tetradeoxy-D-glycero-D-galacto-non-2-enopyranosonic acid]", "values": [
      {"measurement": "IC50", "setting": "[3]", "result": "4e-08", "unit": "M"}
    ]},
    {"compound": "CC(=O)N[C@H]1[C@H]([C@H](OC(=O)NCCCCCCNC(=O)CNC(=O)CNC(=O)CNC(=O)CCCC[C@@H]2SC[C@@H]3NC(=O)N[C@@H]32)[C@H](O)CO)OC(C(=O)O)=C[C@@H]1NC(=N)N", "note": "[Compound No. 21, 5-acetamido-7-(6′-biotinylamino-tricrlycinamido-hexy) -carbamoyloxy-4-guanidino-2,3,4,5-tetradeoxy-D-glycerQ-D-galacto-non-2-enopyranosonic acid]", "values": [
      {"measurement": "IC50", "setting": "[3]", "result": "4e-08", "unit": "M"}
    ]},
    {"compound": "CC(=O)N[C@H]1[C@H]([C@H](OC(=O)NCCCCCCN)[C@H](O)CO)OC(C(=O)O)=C[C@@H]1NC(=N)N", "note": "[compound 11, 5-acetamido-7-(6′-aminohexyl)-carbamoyloxy-4-guanidino-2,3,4,5-tetradeoxy-D-glycero-D-galacto-non-2-enopyranosonic acid]", "values": [
      {"measurement": "IC50", "setting": "[3]", "result": "2e-08", "unit": "M"}
    ]},
    {"compound": "CC(=O)N[C@H]1[C@H]([C@H](OC(=O)NCCCCCCNC(=O)OC(C)(C)C)[C@H](O)CO)OC(C(=O)O)=C[C@@H]1NC(=N)N", "note": "[compound 13, 5-acetamido-7-(6′-tert-butoxycarbonylaminohexyl)-carbamoyloxy-4-guanidino-2,3,4,5-tetradeoxy-D-glycero-D-galacto-non-2-enopyranosonic acid]", "values": [
      {"measurement": "IC50", "setting": "[3]", "result": "2e-08", "unit": "M"}
    ]},
    {"compound": "CC(=O)N[C@H]1[C@H]([C@H](OC(=O)NCCOCCOCCN)[C@H](O)CO)OC(C(=O)O)=C[C@@H]1NC(=N)N", "note": "[compound 17, 5-acetamido-7-{2-[2-(2-aminoethoxy)-ethoxy]-ethyl}-carbamoyloxy-4-guanidino-2,3,4,5-tetradeoxy-D-glycero-D-galacto-non-2-enopyranosonic acid]", "values": [
      {"measurement": "IC50", "setting": "[3]", "result": "2e-08", "unit": "M"}
    ]},
    {"compound": "CC(=O)N[C@H]1[C@H]([C@H](OC(=O)NCCCCCCNC(=O)CCCC[C@@H]2SC[C@@H]3NC(=O)N[C@@H]32)[C@H](O)CO)OC(C(=O)O)=C[C@@H]1NC(=N)N", "note": "[compound 19, 5-acetamindo-7-(6′-biotinylaminohexyl),carbamoyloxy-4-guanidino-2,3,4,5-tetradeoxy-D-crlvero-D-galacto-non-2-enopyranosonic acid]", "values": [
      {"measurement": "IC50", "setting": "[3]", "result": "1e-08", "unit": "M"}
    ]},
    {"compound": "CC(=O)N[C@H]1[C@H]([C@H](OC(=O)NCCCCCCNC(=O)NCCCCCCNC(=O)OC(C)(C)C)[C@H](O)CO)OC(C(=O)O)=C[C@@H]1N", "note": "[compound 20, 5-acetamido-4-amino-7-[6′-(6″-tert-butoxycarbonyl-aminohexylureido) -hexyl]-carbamoyloxy-2,3,4,5-tetradeoxy-D-glycero-D-galacto-non-2-enopyanosonic acid]", "values": [
      {"measurement": "IC50", "setting": "[3]", "result": "1e-05", "unit": "M"}
    ]},
    {"compound": "CC(=O)N[C@H]1[C@H]([C@H](OC(=O)NCCCCCCNC(=O)CCCCCCCCCCCNC(=O)CCCC[C@@H]2SC[C@@H]3NC(=O)N[C@@H]32)[C@H](O)CO)OC(C(=O)O)=C[C@@H]1NC(=N)N", "note": "[compound 22, 5-Acetamido-7-(6′-biotinylamino-dodecanoyl-aminohexyl) -carbamoyl-4-guanidino-2,3,4,5-tetradeoxy-D-glycero-D-galacto-non-2-enopyranosonic acid]", "values": [
      {"measurement": "IC50", "setting": "[3]", "result": "3e-08", "unit": "M"}
    ]},
    {"compound": "CC(=O)N[C@H]1[C@H]([C@H](OC(=O)NCCCCCCNC(=O)CCCCCNC(=O)CCCC[C@@H]2SC[C@@H]3NC(=O)N[C@@H]32)[C@H](O)CO)OC(C(=O)O)=C[C@@H]1NC(=N)N", "note": "[compound 23, 5-Acetamido-7-(6′-biotinylamino-caproyl-aminohexyl) -carbamoyl-4-guanidino-2,3,4,5-tetradeoxy-D-glycero-D-galacto-non-enopyranosonic acid]", "values": [
      {"measurement": "IC50", "setting": "[3]", "result": "2e-08", "unit": "M"}
    ]},
    {"compound": "CC(=O)N[C@H]1[C@H]([C@H](OC(=O)NCCCCCCNC(=O)CCCCCNC(=O)CCCCCNC(=O)CCCCCNC(=O)CCCCCN)[C@H](O)CO)OC(C(=O)O)=C[C@@H]1NC(=N)N", "note": "[compound 25, 5-acetamido-7-(6′-(6″-(6″′-aminocaproyl) -triaminocaproyl) -aminohexyl) -carbamoyloxy-4-guanidino-2,3,4,5-tetradeoxy-D-glycero-D-galacto-non-2-enopyranosonic acid]", "values": [
      {"measurement": "IC50", "setting": "[3]", "result": "5e-08", "unit": "M"}
    ]},
    {"compound": "DANA [reference compound]", "values": [
      {"measurement": "IC50", "setting": "[3]; read-out: Binding Constants (M) / inhibition constants (IC50), NWS/Tokyo", "result": "4e-05", "unit": "M"}
    ]}
  ]
}
